The values that follow come from a melting point compilation (Tetko et al.; mined from patent text by program, amines drawn as free bases though some values may be those of a salt).

Turning to `COc1ccc(C=O)c(O[Si](C)(C)C(C)(C)C)c1O[Si](C)(C)C(C)(C)C`, the melting point was 74 to 75 °C.
Then `CCc1nc(OC)c(NC(=O)N2CCN(c3cc(C)cc(C)c3)CC2)cc1C(=O)NC(C)C(=O)Nc1cc(CO)cc(Nc2c3ccccc3nc3ccc(C)cc23)c1` (stereo unspecified), with 164 to 166 °C; and `Cc1nc(C)c(C(C)(O)c2cccnc2)s1` (stereo unspecified), with 108 to 109 °C.
Then `NC(=O)c1nc(-c2ccccc2)c(-c2ccc(=O)[nH]n2)s1`, with greater than 250 °C; and `CC1c2ccccc2Nc2nccn21` (stereo unspecified), with 171 to 172 °C.
Then `CS(=O)(=O)Nc1ccc(C(O)CCCNCCC(=O)CCC2CCCC2)cc1` (stereo unspecified), with 101 to 102 °C; and `O=c1ncc(Cl)cn1Cn1cc(Cl)cnc1=O`, with 260 °C.
The molecule `COc1ccc(Cc2nc3n(-c4c(Cl)cc(Cl)cc4Cl)[nH]c(C(C)C)c-3c(=O)n2)cc1` had a melting point of 183 to 185 °C.
The value for `CN(C)C1CCCN(C(=O)c2ccc(N)cc2)c2ccccc21` (stereo unspecified) was 120 to 122 °C; that for `CN(C)C(=O)Nc1cc(Br)ccc1N1CCc2ccccc21` was 119 to 121 °C; that for `Cc1c(OCc2ccccc2)c(=O)ccn1CCO` was 192 to 193 °C.
The value for `CC(C)(C)n1nnc(C(C=O)=C(c2ccc(F)cc2)c2ccc(F)cc2)n1` was 131 to 133 °C; that for `Cc1cc(Cc2cnc(NCCCCc3ncc(Br)cc3C)[nH]c2=O)cnc1CO` was 136 to 141 °C; that for `O=c1[nH]c2ccc(Cl)cc2n1CCCCl` was 122 °C.
The value for `CCOC(=O)C(C)Oc1ccc(Oc2nc3ccc(Cl)cc3cc2Cl)cc1` (stereo unspecified) was 70 °C; that for `Cc1cc2c([C@@H]3C[C@H]3CNC(=O)C(F)(F)F)cccn2n1` (relative stereo) was 136 to 138 °C; that for `O=C(Cc1ccccc1)C(C[N+](=O)[O-])c1ccccc1` (stereo unspecified) was 99 to 100 °C.
For the molecule `Cc1ccc(-n2c(-c3ccc(Br)cc3)nc3c4ccccc4c4ccccc4c32)cc1`, the melting point was 236 °C.
The value for `N=C(N)c1ccc(C(=O)N[C@@H](Cc2ccccc2)C(=O)N2CCc3nn(CC(=O)O)cc3C2)cc1` was 146 to 150 °C.
Then `CCOC(=O)C1(Cl)Oc2c(cc(C(=O)c3ccccc3F)c(OC)c2C)C1Cl` (stereo unspecified), with 102 °C.
Take `COc1cc(C(=O)O)c(N)cc1C`: the melting point was in the range of 193 to 196 °C.
Then `CNC1Oc2cc(Cl)cc(-c3ccc(Cl)cc3Cl)c2O1` (stereo unspecified), with greater than 250 °C; and `CC(C)N(CCNC(=O)c1csc(NC(=O)C2=CC=CC(=Nc3ccc[nH]3)C2)n1)C(C)C`, with 160 to 162 °C; and `CCCc1cc(Cl)c2oc(C(=O)c3ccc(OC)cc3)c(C)c2c1OC(=O)c1ccc(OC)cc1`, with 103 to 105 °C.
The molecule `Cn1c(C(F)(F)F)cc(=O)n(-c2ccc3snc(CN(C(=O)OC(C)(C)C)S(C)(=O)=O)c3c2)c1=O` had a melting point of 109 to 111 °C.
The value for `CCOC(=O)C1=C(C)NC(C)=C(C(=O)OCC)C1c1ccc(-n2ccnc2)cc1` was 231 to 233 °C; that for `CN(C)C=NS(=O)(=O)c1ccc(F)c(F)c1` was 109 to 112 °C.
The value for `CN(C)CCCN1C(=O)Nc2ccccc2C1C1CCCCC1` (stereo unspecified) was 124 to 125 °C.
Then `CC(C)(C)[Si](C)(C)OC1CCCc2cnc3cc(OCc4ccccc4[N+](=O)[O-])ccc3c21` (stereo unspecified), with 150 to 152 °C.
`COc1cccc(N(C)C(=S)Oc2ccc3c(c2)CCCC3)n1` displayed a melting point of 99 to 100 °C.
Turning to `CCn1c(CC#N)ccc1C(=O)c1ccc(Cl)cc1`, the melting point lay within 145 to 147 °C.
Then `CCNC(=S)N(C)c1cn(-c2cccnc2)nc1Cl`, with 160 to 162 °C; and `Nc1nc(CN2C(=O)C3(COc4cc5c(cc43)OCO5)c3ccccc32)cs1` (stereo unspecified), with 230 to 235 °C; and `Oc1cc(Nc2nnc(Cc3ccncc3)c3ccccc23)ccc1Cl`, with 245 to 246 °C.
Turning to `Cc1nccc(N2CCC(O)(C(=O)N3CCN(C(=O)c4ccc(Br)cc4)CC3)CC2)n1`, the melting point lay in the range of 114 to 117 °C.
The value for `COc1ccc(C(C=NO)C(C)C)cc1OC` (stereo unspecified) was 89 °C; that for `O=C(Nc1ccccc1)c1ccc(C(=O)Nc2nnc(-c3cc(Cl)cc(Cl)c3O)s2)cc1` was 342 °C.
On to `Cc1nn(-c2cnccn2)c(-c2ccccc2)c1CC(=O)O`, for which the melting point was found to be 125 °C.
Then `O=C(Cl)[C@@H]1CCC(=O)N1C(=O)OCc1ccccc1`, with 65 to 70 °C; and `CCOc1ccc2c(c1)n(C1CCOCC1)c(=O)n2Cc1ccc(C(=O)NC(C)(C)C)cc1OC`, with 209 °C.
For the molecule `OC(CN1CCN(C(c2ccccc2)c2ccccc2)CC1)c1ccc(OCc2ccccc2)cc1OCc1ccccc1` (stereo unspecified), the melting point was determined as 151 °C.
In the case of `O=C(CC=C(Cl)C1(Cl)OC1=O)c1ccccc1` (stereo unspecified), the melting point was in the range of 121 to 122 °C.
The value for `c1cc(-c2ccc3c(c2)OCO3)cc(Nc2ccc3c(c2)OCCO3)n1` was 116 to 118 °C; that for `O=C(CNC1CCCCC1)Nc1ccc([N+](=O)[O-])cc1` was 123 to 125 °C; that for `CCc1cccc2c1[nH]c1c2ccc2c(C=O)c[nH]c21` was greater than 250 °C.
Consider `COc1cccc(OC)c1-c1cc2cnc(N)nc2nc1N`, for which the melting point is greater than 300 °C.
Regarding `CCN(CC)c1nc2[nH]c3c(c(=O)n2n1)SCCC3`, the melting point was 308 to 310 °C.
`O=C(CCl)Cc1nc2ccccc2c(=O)n1-c1ccc(Cl)cc1` registered a melting point greater than 275 °C.
The value for `CCOC(=O)c1c2ccc(Cl)cc2c(-c2ccccc2)n1CCCN(C)c1ccccc1` was 108 to 110 °C.
Then `CSc1ccc(N2C(=O)N(CC(=O)Nc3c(C(C)C)cccc3C(C)C)C(=O)C23CCOCC3)cc1`, with 240 °C; and `Brc1ccn2nc(-c3ccccc3)nc2c1`, with 189 to 191 °C.
Then `N#CCC(=O)N[C@H]1CC[C@H](CCN2CCC(c3cccc4c3CCO4)CC2)CC1`, with 194 °C.
As to `COc1ccc(-c2c3c(cc4ccc(OC(C)C)cc24)C(=O)NC3)cc1`, the melting point is 212 to 215 °C.
The value for `COc1ccc(S(=O)(=O)c2ccccn2)cc1` was 112 °C; that for `N#Cc1c(N2CCc3ccccc3CC2)nc(COC2CCCCO2)[nH]c1=O` (stereo unspecified) was 180 to 183 °C; that for `Cc1cc2c(cc1C)OCC(NNc1ncnc3c1ncn3C1OC(CO)C(O)C1O)C2` (stereo unspecified) was 170 to 172 °C.
Then `O=c1[nH]c2ccccc2n1CCCN1CCC(c2noc3cccc(F)c23)CC1`, with 174 to 175 °C; and `CC(C)(CO)NC(=O)c1nn(-c2ccc(Cl)cc2)c2c1C1CCC2C1` (stereo unspecified), with 167 to 169 °C.
`Cc1cc(O)cc2c1C(C)(C)CC2(C)C` came in with a melting point of 120 °C.
The value for `CCCCC(=O)NNC(=O)c1ccc([N+](=O)[O-])cc1` was 185 to 187 °C.
The value for `O=C(OC(c1ccccc1)c1ccccc1)C1=CSC2C(=Cc3cn4c(n3)SCC4)C(=O)N12` (stereo unspecified) was 160 to 161 °C.
Turning to `OC(CCc1cccnc1)COc1ccc(OCc2ccccc2)cc1` (stereo unspecified), the melting point was 79 to 82 °C.
The value for `NC(=O)N1CC(c2ccccc2)C(c2ccc(Cl)cc2)=N1` (stereo unspecified) was 173 to 175 °C.
Then `CC1=NC(NC(=O)Nc2cccc(C)c2)C(=O)N(CC(=O)N2CCC(C(N)=O)CC2)c2c(C)cccc21` (stereo unspecified), with 197 to 198 °C; and `Oc1ccc(-c2cc3ccccc3nc2Cl)cc1`, with 164 to 166 °C.
The value for `CC[C@@H]1N(c2ccc(C#N)c(Cl)c2C)C(=O)C[C@]1(C)O` was 156 to 158 °C; that for `CC(Oc1ncn(-c2ccccc2Cl)n1)C(=O)O` (stereo unspecified) was 104 to 106 °C; that for `N#Cc1cccc(Nc2nc(N)c(C(=O)c3ccccc3C#N)s2)c1` was 235 to 236 °C.
`COC(=O)C1=C(CC(=O)N2CCN(C)CC2)NC(CS(=O)c2ccccc2Cl)=C(C(=O)OC)C1c1c(Cl)cccc1Cl` (stereo unspecified) displayed a melting point of 180 to 181 °C.
Then `Nc1ncc(-c2ccc3ncc(-c4ccc(CN5CCC(C(=O)N6CCCCC6)CC5)cc4)n3n2)cc1C(F)(F)F`, with 263 to 266 °C.
Then `ClCC(CCl)(CCl)c1cc(Cl)nnc1Cl`, with 111 to 112 °C.
Then `COc1cccc(C(O)CN(C)Cc2sc3c(=O)c(C(=O)NCc4ccc(Cl)cc4)cn(C)c3c2CO)c1` (stereo unspecified), with 165 to 168 °C.
Turning to `O=c1c2cnc(N3CCOCC3)nc2sn1CCN1CCCCC1`, the melting point lay within 98 to 100 °C.
Then `CCOc1cccc(C)c1S(=O)(=O)N=C=O`, with 40 °C; and `COc1cc(COc2cc(CO)n(-c3ccccc3)n2)ccc1OCc1nc(-c2ccccc2)oc1C`, with 146 to 147 °C; and `Nc1nc(N)nc(C2CCC(c3nc(N)nc(N)n3)CC2)n1` (stereo unspecified), with 317 to 321 °C.
In turn, `C=C1CSC2C(NC(=O)OC(C)(C)C)C(=O)N2C1C(=O)OC(c1ccccc1)c1ccccc1` (stereo unspecified) gave a melting point of 135 to 137 °C.
Then `O=C1NC(=O)C(Nc2cccc(-c3ccc(OCc4ccc5ccccc5n4)cc3)c2)S1` (stereo unspecified), with 132 to 133 °C; and `CCC(C)(Cc1c[nH]c2ccccc12)[N+](=O)[O-]` (stereo unspecified), with 79.5 to 80 °C; and `CCCCc1nc(C2CCCCC2)nn1Cc1ccc(-c2ccccc2-c2nnn[nH]2)cc1`, with 125 to 127 °C.
Then `Cc1ccccc1C(=O)Nc1ccc(C(=O)N2CCc3cn(C)nc3-c3sccc32)cc1`, with 257 to 260 °C; and `COc1cc2nc(S(=O)(=O)Nc3c(Cl)cccc3Cl)nn2c(OC)n1`, with 211 to 212 °C; and `O=C1N(Cc2ncccc2C(F)(F)F)c2ccccc2C12COc1c(Cl)cc3c(c12)OCCO3` (stereo unspecified), with 273 to 275 °C.
The value for `N#Cc1cc(O)cc2nc(-c3ccc(O)c(F)c3)oc12` was 308 to 310 °C.
Turning to `CC(=O)c1cc(C(N)=O)c(=O)[nH]c1C`, the melting point was greater than 320 °C.
The value for `O=C(c1ccc(Oc2ccccc2)c([N+](=O)[O-])c1)c1ccc(Oc2ccccc2)c([N+](=O)[O-])c1` was 111 to 113 °C.
